Reference: US20110028458A1, “INHIBITION OF CELL MIGRATION BY A FARNESYLATED DIBENZODIAZEPINONE” (THALLION PHARMACEUTICALS INC., priority 2008, published 2011)

Columns and labels:
ACAT = ACAT enzyme assay, [14C]cholesterol ester quantitation; assay type: biochemical, rat; conditions: 10 μM
Excerpt: (§1) The procedures used were based on known assays: ACAT (from rat; Ref: Largis et al (1989), J. Lipid. Res., vol 30, 681-689), COX-2 (human; Ref: Riendeau et al (1997), Can. J. Physiol. Pharmacol., vol 75, 1088-1095 and Warner et al (1999), Pro. Natl. Acad Sci. USA, vol 96, 7563-7568), 5-LO (human; Ref: Carter et al (1991), J. Pharmacol. Exp. Ther., vol 256, no 3, 929-937, and Safayhi et al (2000), Planta Medica, vol 66, 110-113), PBR (from rat; Le Fur et al (1983), Life Sci. USA, vol 33, 449-457), CysLT1 (human; Martin et al (2001), Biochem. Pharmacol., vol 62, no 9, 1193-1200) and CBR (from rat; Damm et al (1978), Res. Comm. Chem. Pathol. Pharmacol., vol 22, 597-600 and Speth et al (1979), Life Sci., vol 24, 351-357).
Binding assays were done for each of Compounds 1-12 and 46 using ACAT, COX-2, 5-LO, PBR and CysLT1 enzymes. The procedures used are based on the respective references mentioned above and the conditions are summarized in Tables 1 (enzyme assays) and 2 (radioligand receptor assays).
(§2) Binding Assays were done at constant concentration of the compound, in 1% DMSO as vehicle, and are specified below each enzyme/receptor type in Table 3. Significance was obtained when a result was ≧50% binding or inhibition (underlined).

[1] = test system: central benzodiazepine receptor (CBR; GABAA); assay: CBR (GABAA) radioligand binding assay, [3H]flunitrazepam, rat brain; conditions: 10 μM
Excerpt: as §1, §2
As Compound 1 was isolated from structural prediction through genetic analysis and activity identified through in vitro cytotoxic assays, its molecular target(s) were unknown at the time of discovery. Based on the structural characteristics of TLN-4601, we first investigated its binding affinity to the central (GABAA; CBR;) and peripheral (PBR) benzodiazepine receptors. The effect of TLN-4601 on CBR (GABAA) and PBR was initially evaluated in a radioligand-binding assay at MDS Pharma Services (Taipei, Tawain). CBR and PBR were obtained from rat brain and heart membrane-fractions, respectively. Displacement assays were done in the presence of 1 nM [^3H]-Flunitrazepam (CBR; GABAA) or 0.3 nM of [^3H]-PK11195 (PBR). TLN-4601 was tested at 0.01, 0.1, 0.5, 1, 5 and 10 μM. Non-specific binding was estimated in the presence of 10 μM diazepam (CBR) or 100 μM dipyrimadole (PBR) and assays were performed according to previous described methods (Damm et al Res Commun Chem Pathol Pharmacol 22, pp 597-600; Le Fur et al (1983) Life Science 33, pp 449-57). […] This contrats with current specific PBR ligands, which bind the PBR with nanomolar affinity yet their effect on cell proliferation, is in the micromolar range.

SRBC = assay: Hemolysis of SRBC; assay type: cell-based
[2] = test system: HT-29 (colorectal carcinoma); assay: In vitro cytotoxic activity, propidium iodide, HT-29; assay type: cell-based, human
SF268 (CNS) = assay: In vitro cytotoxic activity, propidium iodide, SF-268; assay type: cell-based, human; conditions: 96 hrs
[3] = test system: PC-3 (prostate adenocarcinoma); assay: In vitro cytotoxic activity, propidium iodide, PC-3; assay type: cell-based, human; conditions: 96 hrs
[4] = test system: MDA-MB-231 (mammary gland adenocarcinoma); assay: In vitro cytotoxic activity, propidium iodide, MDA-MB-231; assay type: cell-based, human; conditions: 96 hrs

| SMILES | Percentage of inhibition or binding activity, ACAT (ACAT) | Percentage of inhibition or binding activity, CBR [1] | Hemolysis ED50 (concentration necessary to achieve 50% hemolysis of SRBC) (SRBC) | GI50 ([2]; Homo sapiens, HT-29, 96 h) | GI50 ([2]; 96 hrs) | GI50 (SF268 (CNS)) | GI50 [3] | GI50 [4] |
| --- | --- | --- | --- | --- | --- | --- | --- | --- |
| CC(C)=CCC/C(C)=C/CC/C(C)=C/CN1C(=O)c2cccc(O)c2N(C)c2c(O)cc(O)cc21 [Compound 2] | 51% | 22% | 5.12 µg/mL |  |  |  |  |  |
| CC(C)=CCC/C(C)=C/CC/C(C)=C/CN1C(=O)c2cccc(O)c2N(Cc2ccccc2)c2c(O)cc(O)cc21 [Compound 3] | 63% | 10% | >64 µg/mL |  |  |  |  |  |
| COc1cccc2c1Nc1c(O)cc(O)cc1N(C/C=C(\C)CC/C=C(\C)CCC=C(C)C)C2=O [Compound 4] |  | 12% | >64 µg/mL |  |  |  |  |  |
| COc1cc(O)cc2c1Nc1c(O)cccc1C(=O)N2C/C=C(\C)CC/C=C(\C)CCC=C(C)C [Compound 5] | 60% | 21% | >64 µg/mL |  |  |  |  |  |
| COc1cc(OC)c2c(c1)N(C/C=C(\C)CC/C=C(\C)CCC=C(C)C)C(=O)c1cccc(O)c1N2 [Compound 6] |  | 14% | >64 µg/mL | > 30 µM |  |  |  |  |
| COc1cccc2c1Nc1c(OC)cc(O)cc1N(CC=C(C)CCC=C(C)CCC=C(C)C)C2=O [Compound 7] | 95% | 21% | >64 µg/mL |  | 14.1 µM | 18500 nM | 14600 nM | 17400 nM |
| COc1cc(OC)c2c(c1)N(CC=C(C)CCC=C(C)CCC=C(C)C)C(=O)c1cccc(OC)c1N2 [Compound 8] | 40% | 1% |  |  |  |  |  |  |
| CC(=O)Oc1cc(OC(C)=O)c2c(c1)N(CC=C(C)CCC=C(C)CCC=C(C)C)C(=O)c1cccc(O)c1N2 [Compound 9] | 77% | 10% | >64 µg/mL |  | 12.6 µM | 1880 nM | 1440 nM | 2480 nM |
| CC(=O)Oc1cccc2c1Nc1c(OC(C)=O)cc(O)cc1N(CC=C(C)CCC=C(C)CCC=C(C)C)C2=O [Compound 10] | 90% | 5% | >64 µg/mL |  | 13 µM | 2020 nM | 1350 nM | 1550 nM |
| CC(=O)Oc1cc(O)c2c(c1)N(CC=C(C)CCC=C(C)CCC=C(C)C)C(=O)c1cccc(OC(C)=O)c1N2 [Compound 11] | 71% | 20% | 9.8 µg/mL |  | 16 µM | 5790 nM | 5350 nM | 7720 nM |
| CC(=O)Oc1cc(OC(C)=O)c2c(c1)N(CC=C(C)CCC=C(C)CCC=C(C)C)C(=O)c1cccc(OC(C)=O)c1N2 [Compound 12] | 83% | −24% | >64 µg/mL |  | 9.33 µM | 1950 nM | 1200 nM | 2790 nM |
| CCN1c2c(O)cccc2C(=O)N(C/C=C(\C)CC/C=C(\C)CCC=C(C)C)c2cc(O)cc(O)c21 [Compound 14] |  |  | 43.9 µg/mL |  | 2.04 µM | 760 nM | 1150 nM | 2160 nM |
| CC(C)=CCCC1(C)OC1CC/C(C)=C/CN1C(=O)c2cccc(O)c2Nc2c(O)cc(O)cc21 (stereo not drawn) [Compound 17] |  |  | 35.0 µg/mL |  | > 30 µM | 13400 nM | 18700 nM | > 30000 nM |
| C/C(=C\CN1C(=O)c2cccc(O)c2Nc2c(O)cc(O)cc21)CC/C=C(\C)CCC1OC1(C)C (stereo not drawn) [Compound 18] |  |  | >64 µg/mL |  | > 30 µM | 7450 nM | > 30000 nM | > 30000 nM |
| CC(C)CCCC(C)CCCC(C)CCN1C(=O)c2cccc(O)c2Nc2c(O)cc(O)cc21 (stereo not drawn) [Compound 46] | 8% | 27% | 13.9 µg/mL |  |  |  |  |  |
| CCCN1c2c(O)cccc2C(=O)N(C/C=C(\C)CC/C=C(\C)CCC=C(C)C)c2cc(O)cc(O)c21 [Compound 63] |  |  | >64 µg/mL |  |  |  |  |  |
| CCCCN1c2c(O)cccc2C(=O)N(C/C=C(\C)CC/C=C(\C)CCC=C(C)C)c2cc(O)cc(O)c21 [Compound 64] |  |  | >64 µg/mL |  |  |  |  |  |
| CCCCCCN1c2c(O)cccc2C(=O)N(C/C=C(\C)CC/C=C(\C)CCC=C(C)C)c2cc(O)cc(O)c21 [Compound 67] |  |  | >64 µg/mL |  |  |  |  |  |
| CCC(C)N1c2c(O)cccc2C(=O)N(C/C=C(\C)CC/C=C(\C)CCC=C(C)C)c2cc(O)cc(O)c21 (stereo not drawn) [Compound 77] |  |  | 60.9 µg/mL |  |  |  |  |  |
| CC(C)CCCC(C)CCCC(C)CCN1C(=O)c2cccc(O)c2N(C)c2c(O)cc(O)cc21 (stereo not drawn) [Compound 78] |  |  | 9.89 µg/mL |  |  |  |  |  |
| COC(C)(CCC=C(C)C)CCC/C(C)=C/CN1C(=O)c2cccc(O)c2N(C)c2c(O)cc(O)cc21 (stereo not drawn) [Compound 80] |  |  | >64 µg/mL |  |  |  |  |  |
| COC(C)(C)CCC/C(C)=C/CC/C(C)=C/CN1C(=O)c2cccc(O)c2Nc2c(O)cc(O)cc21 [Compound 82] |  |  | >64 µg/mL |  |  |  |  |  |
| COC(C)(CCC=C(C)C)CCC/C(C)=C/CN1C(=O)c2cccc(O)c2Nc2c(O)cc(O)cc21 (stereo not drawn) [Compound 83] |  |  | 12.4 µg/mL |  |  |  |  |  |
| COC(C)(C)CCCC(C)(CCC/C(C)=C/CN1C(=O)c2cccc(O)c2Nc2c(O)cc(O)cc21)OC (stereo not drawn) [Compound 84] |  |  | >32 µg/mL |  |  |  |  |  |
| CCN1c2c(O)cccc2C(=O)N(C/C=C(\C)CC/C=C(\C)CCCC(C)(C)OC)c2cc(O)cc(O)c21 [Compound 85] |  |  | >64 µg/mL |  |  |  |  |  |
| CCN1c2c(O)cccc2C(=O)N(CC=C(C)CCCC(C)(CCCC(C)(C)OC)OC)c2cc(O)cc(O)c21 (stereo not drawn) [Compound 87] |  |  | >64 µg/mL |  | 1.83 µM | 910 nM | 1390 nM | 2400 nM |
| CC(C)=CCCC(C)(O)CCC/C(C)=C/CN1C(=O)c2cccc(O)c2Nc2c(O)cc(O)cc21 (stereo not drawn) [Compound 89] |  |  | >64 µg/mL | > 30 µM |  |  |  |  |
| CC(=O)NC(C)(CCC=C(C)C)CCC/C(C)=C/CN1C(=O)c2cccc(O)c2Nc2c(O)cc(O)cc21 (stereo not drawn) [Compound 92] |  |  | >64 µg/mL | > 30 µM |  |  |  |  |
| CC(C)=CCC/C(C)=C/CC/C(C)=C/CN1C(=O)c2cccc(O)c2N(C)c2c(O)cc(O)cc21 [Compound 98] |  |  |  |  | 0.69 µM | 160 nM | 820 nM | 510 nM |
| [2H]C([2H])([2H])N1c2c(O)cccc2C(=O)N(C/C=C(\C)CC/C=C(\C)CCC=C(C)C)c2cc(O)cc(O)c21 [Compound 98] |  |  | 4.5 µg/mL |  |  |  |  |  |
